Data from article PMC7988117, “OMN6 a novel bioengineered peptide for the treatment of multidrug resistant Gram negative bacteria” (Scientific Reports, 2021).
Converted amounts (≈) assume the structure as drawn. Where two headings read alike, the source gives them in different places. Bridge positions count the residues as written; N and C are the ends. Peptide text beside a SMILES is read from it.

What was measured:
mouse red blood cells = experiment: Hemolysis assay; type: cell-based; details: 10% mouse erythrocytes, 6.25–200 µM (27–868 µg/mL), 1 h, 37 °C, absorbance 400 nm
Method: Red Blood Cells (RBCs) suspension was prepared from whole blood extracted from the heart of Hsd:ICR (CD-1) mice (Envigo, Huntingdon, Cambridgeshire, UK). The study was carried out in accordance with relevant guidelines and regulations, and was approved by the Hebrew University Ethics Committee for the Care and Use of Laboratory Animals under approval number NS-15-14575-3. Briefly, blood was collected in a 24 U/mL heparin tube to prevent coagulation. Then cells were washed with Phosphate Buffered Saline (PBS; Biological Industries) and centrifuged at 200g for 10 min at 20 °C. This operation was repeated three times, then remaining RBCs were resuspended in saline or PBS to form a 10% RBC solution. Increasing concentrations of OMN6 or 1% Tween were added to RBCs. After an incubation of 1 h at 37 °C with shaking at 100 rpm, experiment tubes were centrifuged for 10 min at 200g at room temperature. 100 µL supernatant was extracted from each tube and tested according to the Hemoglobin Assay Kit (Sigma-Aldrich). Hemoglobin levels were determined via absorbance at 400 nm.

[1] = tested on: Gram-positive strains (S. aureus, E. faecium, E. faecalis, B. cereus); experiment: MIC, broth microdilution (CLSI), summary over strains; type: cell-based; details: E. faecalis and B. cereus, summary of Table 1
Description: (Italy), an Evotec Company.

Staphylococcus aureus = details: CLSI broth microdilution, Muller-Hinton broth, 18–24 h, 35 ± 2 °C
Method: (§1) This experiment was conducted by Omnix Medical, by JMI Laboratories (North Liberty, IA, USA) and by Aptuit (Verona) S.r.l. (Italy), an Evotec Company. All studies were performed according to Clinical and Laboratory Standards Institute guidelines[30] for the application of the broth microdilution method. Reference strains from American Type Culture Collection (ATCC) and clinical isolates from the Evotec EvostrAIn and the JMI Laboratories SENTRY surveillance program culture collections (Acinetobacter baumannii: ACC 00445, ACC 00527, ACC 00535, ATCC 17978, ATCC 19606, ATCC BAA-1793, ACC 01076, ACC 01077, NCTC 13420, JMI #1088100 and JMI #1001007; Klebsiella pneumoniae: ATCC 43816 and ATCC BAA-1705; Escherichia coli: ACC 01001 and ATCC 25922; Staphylococcus aureus: ATCC 29213, ATCC BAA-44 and ATCC 33591; Bacillus cereus: ATCC 14579; Enterococcus faecalis: ATCC 29212; Enterococcus faecium: ATCC BAA-2319) were used. The antimicrobial activity of OMN6 was determined by 12 serial two-fold dilutions in water of the 100-fold highest compound solution; 1 µL of each well was transferred into 96 microtiter plates (final concentration: 256–0.12 µg/mL). In most strains, same procedure was used to determine the colistin antimicrobial activity (final concentration: 32–0.015 µg/mL). Bacterial strains were sub-cultured on the agar plates and incubated for 18–24 h at 35 ± 2 °C in ambient air. Following incubation, the inoculum was prepared from isolated colonies and adjusted to 0.5 McFarland turbidity standard (1 to 2 × 10^8 colony-forming units/mL) in 0.9% saline. Bacterial suspension was then diluted 1:200 in Muller-Hinton broth (from BD; Becton, Dickinson and Company, Franklin Lakes, NJ, USA) and within 15 min 100 µL/well were dispensed. Growth-control wells and sterility-check wells (uninoculated well) were present in each plate. Plates were incubated for 18–24 h at 35 ± 2 °C in ambient air. […] The antimicrobial activity to other antibiotics on most bacterial strains was determined by Evotec using the antimicrobial sensitive test from the VITEK 2 automated microbiology system (bioMérieux SA, Marcy l'Etoile, France; data presented in Table S1), or by ATCC according to CLSI (Clinical and Laboratory Standards Institute) guidelines[30]

Escherichia coli = details: CLSI broth microdilution, Muller-Hinton broth, 18–24 h, 35 ± 2 °C
Method: as §1

Bacillus cereus = details: B. cereus ATCC 14579; CLSI broth microdilution, Muller-Hinton broth, 18–24 h, 35 ± 2 °C
Method: as §1

Klebsiella pneumoniae = details: CLSI broth microdilution, Muller-Hinton broth, 18–24 h, 35 ± 2 °C
Method: as §1

Gram-negative bacteria = details: summary of Table 1, regardless of resistance profile
Method: as §1

Enterococcus faecalis = details: E. faecalis ATCC 29212 (Van-S); CLSI broth microdilution, Muller-Hinton broth, 18–24 h, 35 ± 2 °C
Method: as §1

Acinetobacter baumannii = details: for MIC: CLSI broth microdilution, Muller-Hinton broth, 18–24 h, 35 ± 2 °C
Method: as §1

Enterococcus faecium = details: E. faecium ATCC BAA-2319 (MDR/Van-R); CLSI broth microdilution, Muller-Hinton broth, 18–24 h, 35 ± 2 °C
Method: as §1

Question: `CC[C@H](C)[C@@H]1NC(=O)CNC(=O)[C@H](CC(=O)O)NC(=O)[C@H](CCCNC(=N)N)NC(=O)[C@H]([C@@H](C)CC)NC(=O)[C@H](CC(N)=O)NC(=O)[C@H](CCC(N)=O)NC(=O)CNC(=O)[C@H](C(C)C)NC(=O)[C@H](CCCCN)NC(=O)[C@H](CCC(=O)O)NC(=O)[C@H]([C@@H](C)CC)NC(=O)[C@H](CCCCN)NC(=O)[C@H](CCCCN)NC(=O)[C@H](Cc2ccccc2)NC(=O)[C@H](CC(C)C)NC(=O)[C@H](CCCCN)NC(=O)[C@H](Cc2c[nH]c3ccccc23)NC(=O)[C@H](CCCCN)NC(=O)[C@@H](NC(=O)[C@@H](N)CCSC)CSSC[C@@H](C(N)=O)NC(=O)[C@H](CCCCN)NC(=O)[C@H](C)NC(=O)[C@H]([C@@H](C)CC)NC(=O)[C@H](CCC(N)=O)NC(=O)[C@H]([C@@H](C)O)NC(=O)[C@H](C)NC(=O)[C@H](CCC(N)=O)NC(=O)CNC(=O)[C@H](C(C)C)NC(=O)[C@H](C(C)C)NC(=O)[C@H](C)NC(=O)[C@H](C(C)C)NC(=O)[C@H](C)NC(=O)[C@@H]2CCCN2C(=O)CNC(=O)[C@H](C)NC(=O)[C@H](CCCCN)NC(=O)[C@H]([C@@H](C)CC)NC1=O` [OMN6] (H-MCKWKLFKKIEKVGQNIRDGIIKAGPAVAVVGQATQIAKC-NH2; disulfide 2-40; N-terminus assumed) was tested. Which “Hemolysis expressed as free Hemoglobin” value (mouse red blood cells) did it give?
Answer: no hemolysis

Question: What about the “MIC on all tested Gram-positive strains” value [1] of the same compound?
Answer: > 256 µg/mL

Question: And the MIC (Staphylococcus aureus; S. aureus ATCC 29213 (MSSA))?
Answer: > 256 µg/mL

Question: And the MIC (Staphylococcus aureus; S. aureus ATCC 33591 (MRSA))?
Answer: > 256 µg/mL

Question: What about the MIC (Staphylococcus aureus; S. aureus ATCC BAA-44 (MDR/MRSA)) of the same compound?
Answer: > 256 µg/mL

Question: What about the MIC (Escherichia coli; E. coli ACC 01001 (mcr-1)) of the same compound?
Answer: 32 µg/mL (≈ 7.37 µM)

Question: What about the MIC (Escherichia coli; E. coli ATCC 25922 (S)) of the same compound?
Answer: 16 µg/mL (≈ 3.69 µM)

Question: And the MIC (Bacillus cereus)?
Answer: > 256 µg/mL

Question: And the MIC (Klebsiella pneumoniae; K. pneumoniae ATCC 43816 (S))?
Answer: 16 µg/mL (≈ 3.69 µM)

Question: What about the MIC (Klebsiella pneumoniae; K. pneumoniae ATCC BAA-1705 (MDR)) of the same compound?
Answer: 16 µg/mL (≈ 3.69 µM)

Question: And the “MIC on Gram-negative bacteria (all tested strains)” value (Gram-negative bacteria)?
Answer: ≤ 32 µg/mL

Question: And the MIC (Enterococcus faecalis)?
Answer: > 256 µg/mL

Question: What about the MIC (Acinetobacter baumannii; A. baumannii ACC 00445 (MDR/Col-S)) of the same compound?
Answer: 4 µg/mL (≈ 0.922 µM)

Question: What about the MIC (Acinetobacter baumannii; A. baumannii ACC 00527 (MDR/Col-R)) of the same compound?
Answer: 4 µg/mL (≈ 0.922 µM)

Question: What about the MIC (Acinetobacter baumannii; A. baumannii ACC 00535 (MDR/Col-S)) of the same compound?
Answer: 4 µg/mL (≈ 0.922 µM)

Question: What about the MIC (Acinetobacter baumannii; A. baumannii ACC 01076 (MDR/Col-R)) of the same compound?
Answer: 8 µg/mL (≈ 1.84 µM)

Question: And the MIC (Acinetobacter baumannii; A. baumannii ACC 01077 (MDR/Col-R))?
Answer: 4 µg/mL (≈ 0.922 µM)

Question: And the MIC (Acinetobacter baumannii; A. baumannii ATCC 17978 (S))?
Answer: 8 µg/mL (≈ 1.84 µM)

Question: What about the MIC (Acinetobacter baumannii; A. baumannii ATCC 19606 (S)) of the same compound?
Answer: 8 µg/mL (≈ 1.84 µM)

Question: And the MIC (Acinetobacter baumannii; A. baumannii ATCC BAA-1793 (MDR))?
Answer: 8 µg/mL (≈ 1.84 µM)

Question: What about the “MICs of the A. baumannii strains” value (Acinetobacter baumannii; summary of Table 1, sensitive and multidrug resistant strains) of the same compound?
Answer: 4 to 8 µg/mL

Question: And the MIC (Enterococcus faecium)?
Answer: > 256 µg/mL
